Molecules are shown by their SMILES.

Human-CD73 enzyme, sequence (P21589 27-574): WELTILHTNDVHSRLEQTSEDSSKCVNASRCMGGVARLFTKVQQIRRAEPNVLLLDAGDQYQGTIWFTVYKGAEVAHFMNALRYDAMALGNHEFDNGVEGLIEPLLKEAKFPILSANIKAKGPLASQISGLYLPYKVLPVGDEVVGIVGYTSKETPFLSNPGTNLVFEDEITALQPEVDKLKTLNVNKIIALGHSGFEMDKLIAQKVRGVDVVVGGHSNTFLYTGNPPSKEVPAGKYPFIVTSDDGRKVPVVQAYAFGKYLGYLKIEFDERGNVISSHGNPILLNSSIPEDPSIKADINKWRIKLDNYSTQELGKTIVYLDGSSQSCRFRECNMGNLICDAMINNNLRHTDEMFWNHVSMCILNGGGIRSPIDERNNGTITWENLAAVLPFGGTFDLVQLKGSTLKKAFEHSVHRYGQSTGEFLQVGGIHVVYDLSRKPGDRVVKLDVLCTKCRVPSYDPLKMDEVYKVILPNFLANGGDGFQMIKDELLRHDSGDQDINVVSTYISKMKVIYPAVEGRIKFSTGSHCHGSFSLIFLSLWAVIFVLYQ

The target in this assay is Human-CD73 enzyme (Homo sapiens (Human), UniProt P21589). The assay is described as follows: In vitro inhibitory activity to recombinant human CD73 enzyme (ATP-GLO). Format: biochemical. The following applies: Human-CD73 0.1 μg/mL, AMP 100 μM. Here is the method:
Human-CD73 (Novoprotein; C446) was diluted with Tris-MgCl2 buffer to form a stock solution (3×), which was placed in a 96-well plate according to 20 μL/well to obtain a final concentration of 0.1 μg/mL. The compound was diluted with Tris-MgCl2 buffer to form a stock solution (3×) of an appropriate concentration gradient, the compound solution was added to the above 96-well plate according to 20 μL/well and uniformly mixed with the Human-CD73 solution, and the mixture was incubated at the room temperature for 30 min. Meanwhile, a positive reference group (without the compound) and a negative reference group (without CD73) were set. AMP (Sigma; A1752-5G) was diluted with Tris-MgCl2 buffer to form a stock solution (3×), which was added to the above 96-well plate according to 20 μL/well to obtain a final concentration of 100 μM, and the mixture was uniformly mixed and incubated at 37° C. for 60 min; ATP (Sigma; A7699-1G) was diluted with Tris-MgCl2 buffer to form a stock solution (7×), which was added to the above 96-well plate according to 10 μL/well to obtain a final concentration of 100 μM, and the mixture was uniformly mixed, incubated for 5 min, and tested by using an ATP-GLO kit (Promega; G7573).
Human-CD73 inhibition rates of the compound at different concentrations were calculated according to the following formula, the concentration of the compound was taken as the X-axis, the inhibition rate was taken as the Y-axis, and an IC50 value of the compound in inhibiting Human-CD73 was calculated by using Prism software.
Take `O=c1[nH]cc(-c2cc([C@@H]3C[C@H]3CC(F)F)c(Cl)nn2)c(=O)[nH]1` [Compound 19, 5-(6-chloro-5-((1R,2S)-2-(2,2-difluoroethyl)cyclopropyl)pyridazin-3-yl)pyrimidine-2,4(1H,3H)-dione]: the IC50 turned out to be 1250 nM.

Take `CC(C)OC[C@H]1C[C@@H]1c1cc(-c2c[nH]c(=O)[nH]c2=O)nnc1Cl` [Compound 17, 5-(6-chloro-5-((1S,2S)-2-(isopropoxymethyl)cyclopropyl)pyridazin-3-yl)-1H-pyrimidine-2,4-dione]: the IC50 amounted to 164 nM.

As for `O=c1[nH]cc(-c2cc([C@@H]3C[C@H]3CF)c(Cl)nn2)c(=O)[nH]1` [Compound 8, 5-(6-chloro-5-((1R,2R)-2-(fluoromethyl)cyclopropyl)pyridazin-3-yl)pyrimidine-2,4(1H,3H)-dione], the IC50 was 16.5 nM.

As for `CC(C)(O)[C@H]1C[C@@H]1c1cc(-c2c[nH]c(=O)[nH]c2=O)nnc1Cl` [Compound 5, 5-(6-chloro-5-((1S,2S)-2-(2-hydroxypropan-2-yl)cyclopropyl)pyridazin-3-yl)pyrimidine-2,4(1H,3H)-dione], the IC50 was 11.6 nM.

For `O=c1[nH]cc(-c2cc([C@@H]3C[C@H]3CC(F)(F)F)c(Cl)nn2)c(=O)[nH]1` [Compound 13, 5-(6-chloro-5-((1R,2S)-2-(2,2,2-trifluoroethyl)cyclopropyl)pyridazin-3-yl)pyrimidine-2,4(1H,3H)-dione], the IC50 worked out at 6870 nM.

Regarding `CC(O)[C@H]1C[C@@H]1c1cc(-c2c[nH]c(=O)[nH]c2=O)nnc1Cl` (stereo partly drawn) [Compound 6, 5-(6-chloro-5-((1S,2S)-2-(1-hydroxyethyl)cyclopropyl)pyridazin-3-yl)pyrimidine-2,4(1H,3H)-dione], the IC50 was determined as 24.5 nM.

Consider `CCOC[C@H]1C[C@@H]1c1cc(-c2c[nH]c(=O)[nH]c2=O)nnc1Cl` [Compound 16, 5-(6-chloro-5-((1S,2S)-2-(ethoxymethyl)cyclopropyl)pyridazin-3-yl)-1H-pyrimidine-2,4-dione], for which the IC50 is 173 nM.

With `COC[C@H]1C[C@@H]1c1cc(-c2c[nH]c(=O)[nH]c2=O)nnc1Cl` [Compound 12, 5-(6-chloro-5-((1S,2S)-2-(methoxymethyl)cyclopropyl)pyridazin-3-yl)pyrimidine-2,4(1H,3H)-dione], the IC50 was 15.4 nM.

On to `Cc1nnc(-c2c[nH]c(=O)[nH]c2=O)cc1[C@H]1C[C@@H]1CF` [Compound 20, 5-(5-((1S,2S)-2-(fluoromethyl)cyclopropyl)-6-methylpyridazin-3-yl)pyrimidine-2,4(1H,3H)-dione], for which the 50% inhibitory concentration (IC50) was determined as 9.55 nM.

As to `N#Cc1nnc(-c2c[nH]c(=O)[nH]c2=O)cc1[C@H]1C[C@@H]1C(F)(F)F` [Compound 15, 6-(2,4-dioxo-1H-pyrimidin-5-yl)-4-((1S,2S)-2-(trifluoromethyl)cyclopropyl)pyridazine-3-carbonitrile], the IC50 was found to be 123 nM.

The values above are taken from patent US20230399314A1, “CD73 INHIBITOR AND USE THEREOF” (WUHAN HUMANWELL INNOVATIVE DRUG RESEARCH AND DEVELOPMENT …, priority 2020, published 2023).
